From the supplement of paper PMC11061612

Tests used:
Experiment in all cases: combination Emax (second highest fraction inhibited in the dose matrix, 72 h); higher = more inhibition; extreme values may be limits of the assay
[1] = test system: CADO-ES1 (Ewing's Sarcoma)
Procedure, shortened: (§1)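 Cell lines grown in DMEM/F12 or RPMI with 10% FBS were plated in 1536-well plates and held 24 hours at 37°C, 5% CO2 before 72 hours of exposure to two-drug dose matrices, with DMSO typically at 0.2%. CellTiter-Glo 2.0 luminescence gave viability, which was converted to inhibition. Vehicle wells were set to 0 and blank wells to 1. Combination Emax is the second-highest inhibition in the matrix, and Bliss excess is the observed combination effect minus the expected EA + EB − EA·EB, where EA and EB are the single-agent effects.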

COLO-679 (Melanoma) = test system: COLO-679 (Melanoma)
Procedure, shortened: as §1

[2] = test system: DU-145 (Prostate Carcinoma)
Procedure, shortened: as §1

[3] = test system: EFO-21 (Ovarian Carcinoma)
Procedure, shortened: as §1

[4] = test system: HCC2998 (Colorectal Carcinoma)
Procedure, shortened: as §1

Hey (Ovarian Carcinoma) = test system: Hey (Ovarian Carcinoma)
Procedure, shortened: as §1

[5] = test system: KGN (Other Solid Carcinomas)
Procedure, shortened: as §1

[6] = test system: KMRC-1 (Kidney Carcinoma)
Procedure, shortened: as §1

[7] = test system: LC-1-sq (Squamous Cell Lung Carcinoma)
Procedure, shortened: as §1

[8] = test system: ME-180 (Cervical Carcinoma)
Procedure, shortened: as §1

[9] = test system: ML-2 (Acute Myeloid Leukemia)
Procedure, shortened: as §1

[10] = test system: MOG-G-UVW (Low Grade Glioma)
Procedure, shortened: as §1

[11] = test system: MOLT-4 (T-Lymphoblastic Leukemia)
Procedure, shortened: as §1

[12] = test system: MV-4-11 (Acute Myeloid Leukemia)
Procedure, shortened: as §1

[13] = test system: Mo-T (Other Blood Carcinomas)
Procedure, shortened: as §1

[14] = test system: NCI-H1838 (Lung Adenocarcinoma)
Procedure, shortened: as §1

[15] = test system: NCI-H522 (Lung Adenocarcinoma)
Procedure, shortened: as §1

SK-N-AS (Neuroblastoma) = test system: SK-N-AS (Neuroblastoma)
Procedure, shortened: as §1

[16] = test system: SKN (Other Solid Carcinomas)
Procedure, shortened: as §1

[17] = test system: SW982 (Other Solid Carcinomas)
Procedure, shortened: as §1

| SMILES | combination Emax [1] | combination Emax (COLO-679 (Melanoma)) | combination Emax [2] | combination Emax [3] | combination Emax [4] | combination Emax (Hey (Ovarian Carcinoma)) | combination Emax [5] | combination Emax [6] | combination Emax [7] | combination Emax [8] | combination Emax [9] | combination Emax [10] | combination Emax [11] | combination Emax [12] | combination Emax [13] | combination Emax [14] | combination Emax [15] | combination Emax (SK-N-AS (Neuroblastoma)) | combination Emax [16] | combination Emax [17] |
| --- | --- | --- | --- | --- | --- | --- | --- | --- | --- | --- | --- | --- | --- | --- | --- | --- | --- | --- | --- | --- |
| CC1(C)CCC(CN2CCN(c3ccc(C(=O)NS(=O)(=O)c4ccc(NCC5CCOCC5)c([N+](=O)[O-])c4)c(Oc4cnc5[nH]ccc5c4)c3)CC2)=C(c2ccc(Cl)cc2)C1 [Venetoclax] + C=CCn1c(=O)c2cnc(Nc3ccc(N4CCN(C)CC4)cc3)nc2n1-c1cccc(C(C)(C)O)n1 [AZD1775] (first compound max 1 µM, partner max 1 µM) | 0.68 | 0.413 | 0.349 | 0.581 | 0.599 | 0.667 | 0.68 | 0.394 | 0.689 | 0.599 | 1 | 0.933 | 1 | 1 | 0.629 | 0.421 | 0.289 | 0.953 | 0.556 | 0.742 |
| CC1(C)CCC(CN2CCN(c3ccc(C(=O)NS(=O)(=O)c4ccc(NCC5CCOCC5)c([N+](=O)[O-])c4)c(Oc4cnc5[nH]ccc5c4)c3)CC2)=C(c2ccc(Cl)cc2)C1 [Venetoclax] + CCN(CCO)CCCOc1ccc2c(Nc3cc(CC(=O)Nc4cccc(F)c4)[nH]n3)ncnc2c1 [AZD2811] (first compound max 1 µM, 7x7, partner max 1 µM) | 0.755 | 0.133 | 0.157 | 0.375 | 0.121 | 0.266 | 0.509 | 0.158 | 0.226 | 0.243 | 0.998 | 0.636 | 1 | 1 | 0.611 | 0.226 | 0.217 | 0.434 | 0.242 | 0.55 |
| CC1(C)CCC(CN2CCN(c3ccc(C(=O)NS(=O)(=O)c4ccc(NCC5CCOCC5)c([N+](=O)[O-])c4)c(Oc4cnc5[nH]ccc5c4)c3)CC2)=C(c2ccc(Cl)cc2)C1 [Venetoclax] + CN(C)CCCOc1ccc(-c2ccc3ncc4c(c3c2)n(C2CCOCC2)c(=O)n4C)cn1 [AZD0156] (first compound max 1 µM, 7x7, partner max 1 µM) | 0.692 | 0.107 | 0.0977 | 0.29 | 0.105 | 0.216 | 0.488 | 0.0988 | 0.192 | 0.211 | 0.822 | 0.726 | 0.741 | 1 | 0.558 | 0.303 | 0.141 | 0.17 | 0.235 | 0.2 |
| CC1(C)CCC(CN2CCN(c3ccc(C(=O)NS(=O)(=O)c4ccc(NCC5CCOCC5)c([N+](=O)[O-])c4)c(Oc4cnc5[nH]ccc5c4)c3)CC2)=C(c2ccc(Cl)cc2)C1 [Venetoclax] + COc1cc(Nc2ncc3c(n2)-c2ccc(Cl)cc2C(c2c(F)cccc2OC)=NC3)ccc1C(=O)O [Alisertib] (first compound max 1 µM, 7x7, partner max 10 µM) | 0.957 | 0.282 | 0.268 | 0.359 | 0.225 | 0.61 | 0.685 | 0.384 | 0.275 | 0.603 | 0.988 | 0.722 | 0.959 | 1 | 0.71 | 0.437 | 0.277 | 0.818 | 0.577 | 0.606 |
| CC1(C)CCC(CN2CCN(c3ccc(C(=O)NS(=O)(=O)c4ccc(NCC5CCOCC5)c([N+](=O)[O-])c4)c(Oc4cnc5[nH]ccc5c4)c3)CC2)=C(c2ccc(Cl)cc2)C1 [Venetoclax] + C[C@@H]1COCCN1C2=NC(=NC(=C2)C3(CC3)[S@](=N)(=O)C)C4=C5C=CNC5=NC=C4 [AZD6738] (first compound max 1 µM, 7x7, partner max 10 µM) | 0.952 | 0.639 | 0.537 | 0.444 | 0.779 | 0.774 | 0.751 | 0.486 | 0.672 | 0.571 | 1 | 0.852 | 1 | 1 | 0.735 | 0.6 | 0.161 | 0.896 | 0.491 | 0.676 |
| CC1(C)CCC(CN2CCN(c3ccc(C(=O)NS(=O)(=O)c4ccc(NCC5CCOCC5)c([N+](=O)[O-])c4)c(Oc4cnc5[nH]ccc5c4)c3)CC2)=C(c2ccc(Cl)cc2)C1 [Venetoclax] + C[C@@H](Nc1cc(F)cc(F)c1)c1cc(C(=O)N(C)C)cc2c(=O)cc(N3CCOCC3)oc12 [AZD8186] (first compound max 1 µM, 7x7, partner max 3 µM) | 0.625 | 0.273 | 0.153 | 0.248 | 0.145 | 0.139 | 0.333 | 0.532 | 0.187 | 0.129 | 0.983 | 0.45 | 0.422 | 1 | 0.632 | 0.0996 | 0.0652 | 0.0826 | 0.456 | 0.382 |
